In one experiment the target is c-Met (Homo sapiens, UniProt P08581). Nature of the experiment: Ki determination for the inhibition of c-Met, coupled enzyme system. Type of experiment: biochemical. The following applies: 200 μM ATP, 10 μM polyGluTyr, 80 nM c-Met, 30° C. In outline:
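Coupled pyruvate kinase/lactate dehydrogenase NADH assay with 80 nM c-Met, 200 μM ATP, 10 μM polyGluTyr in pH 7.5 HEPES, 1.5% DMSO at 30° C. Compound (0.006–12.5 μM final, 12-point) preincubated 10 min; ATP started reaction, rates read over 10 min; Ki derived from rate versus inhibitor concentration.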

A further experiment concerns the target GSK-3β, (AA 1-420) (Homo sapiens, UniProt P49841). Nature of the experiment: GSK-3 inhibition assay, coupled enzyme system. The class given is biochemical. The following applies: 20 μM ATP, 300 μM peptide, 20 nM GSK-3b, 30° C.; read-out: Ki values (GSK3). In outline: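 Pyruvate kinase/lactate dehydrogenase-coupled NADH assay with 20 nM enzyme, 20 μM ATP and 300 μM peptide in HEPES pH 7.5, 1.5% DMSO, 30° C. Compound (0.002–30 μM, 12-point) preincubated 10 min before ATP start; rates over 10 min gave Ki.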

Each structure is given as a SMILES string. Bounds are passed on as bounds.

In general, Ki refers to a measure of affinity in units of concentration, obtained from inhibition or displacement.

Chain of GSK-3β, (AA 1-420) (P49841 whole entry, the tested form may be a part): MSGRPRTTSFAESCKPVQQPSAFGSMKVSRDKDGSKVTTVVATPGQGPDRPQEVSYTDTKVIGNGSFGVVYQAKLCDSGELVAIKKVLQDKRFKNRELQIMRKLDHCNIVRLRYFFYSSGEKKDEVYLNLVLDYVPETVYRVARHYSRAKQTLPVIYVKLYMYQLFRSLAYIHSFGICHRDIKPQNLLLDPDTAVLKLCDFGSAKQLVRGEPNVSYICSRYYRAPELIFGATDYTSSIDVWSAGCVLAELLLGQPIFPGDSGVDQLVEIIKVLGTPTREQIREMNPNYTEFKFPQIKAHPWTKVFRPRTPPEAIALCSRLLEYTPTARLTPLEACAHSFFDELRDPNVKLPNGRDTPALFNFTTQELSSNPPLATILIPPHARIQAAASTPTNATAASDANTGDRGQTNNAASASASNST
Chain of c-Met (P08581 25-1390): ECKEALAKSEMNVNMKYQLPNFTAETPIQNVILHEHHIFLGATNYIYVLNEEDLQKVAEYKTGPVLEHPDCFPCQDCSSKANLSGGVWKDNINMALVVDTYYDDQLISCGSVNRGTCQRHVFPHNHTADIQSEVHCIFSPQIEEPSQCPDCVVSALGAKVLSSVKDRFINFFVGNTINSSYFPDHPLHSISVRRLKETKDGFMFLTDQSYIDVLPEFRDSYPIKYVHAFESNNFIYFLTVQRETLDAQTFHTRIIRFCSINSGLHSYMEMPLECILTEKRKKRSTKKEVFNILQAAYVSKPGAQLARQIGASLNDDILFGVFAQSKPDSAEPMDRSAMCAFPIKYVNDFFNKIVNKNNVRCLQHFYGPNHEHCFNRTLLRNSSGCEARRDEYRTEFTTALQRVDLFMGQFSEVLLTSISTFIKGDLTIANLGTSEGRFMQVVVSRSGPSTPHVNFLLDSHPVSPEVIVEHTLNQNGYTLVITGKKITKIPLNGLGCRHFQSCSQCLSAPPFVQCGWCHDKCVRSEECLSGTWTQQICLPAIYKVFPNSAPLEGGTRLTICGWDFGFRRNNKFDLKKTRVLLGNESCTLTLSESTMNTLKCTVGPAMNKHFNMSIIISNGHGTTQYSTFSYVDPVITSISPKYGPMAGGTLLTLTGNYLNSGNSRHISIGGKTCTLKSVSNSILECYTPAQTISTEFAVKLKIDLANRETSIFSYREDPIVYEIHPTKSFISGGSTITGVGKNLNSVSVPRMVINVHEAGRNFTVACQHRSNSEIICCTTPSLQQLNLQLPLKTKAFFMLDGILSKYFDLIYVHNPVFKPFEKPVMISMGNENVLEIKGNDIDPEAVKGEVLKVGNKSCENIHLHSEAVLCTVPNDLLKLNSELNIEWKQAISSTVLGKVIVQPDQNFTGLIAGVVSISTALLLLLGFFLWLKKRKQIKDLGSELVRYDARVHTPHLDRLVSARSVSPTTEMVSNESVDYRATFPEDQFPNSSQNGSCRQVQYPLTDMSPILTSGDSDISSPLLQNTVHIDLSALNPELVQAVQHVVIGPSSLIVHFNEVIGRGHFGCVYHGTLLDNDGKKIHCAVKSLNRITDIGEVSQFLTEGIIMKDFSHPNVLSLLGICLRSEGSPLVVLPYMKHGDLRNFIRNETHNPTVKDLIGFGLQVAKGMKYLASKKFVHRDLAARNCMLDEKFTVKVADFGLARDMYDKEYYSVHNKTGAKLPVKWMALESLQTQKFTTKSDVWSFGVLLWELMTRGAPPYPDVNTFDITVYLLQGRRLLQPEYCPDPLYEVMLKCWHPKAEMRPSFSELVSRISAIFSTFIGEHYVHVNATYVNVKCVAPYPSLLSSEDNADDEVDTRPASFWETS

As to `CN1CCN(C(=O)[C@H]2C[C@@H]2c2cnc3[nH]cc(-c4oncc4-c4cccc(F)c4F)c3c2)CC1` (relative stereo) [Compound 142, trans-(2-{3-[4-(2,3-Difluoro-phenyl)-isoxazol-5-yl]-1H-pyrrolo[2,3-b]pyridin-5-yl}-cyclopropyl)-(4-methyl-piperazin-1-yl)-methanone], the Ki was less than 200 nM on c-Met and 200 to 1000 nM on GSK-3β, (AA 1-420).
In turn, `Fc1cccc(-c2cnoc2-c2n[nH]c3ncccc23)c1F` [Compound 31, 3-(4-(2,3-difluorophenyl)isoxazol-5-yl)-1H-pyrazolo[3,4-b]pyridine] had a Ki on c-Met of 200 to 1000 nM.
As to `Fc1cccc(-c2cnoc2-c2c[nH]c3ccc(-c4ccncc4)cc23)c1F` [Compound 34, 3-[4-(2,3-Difluoro-phenyl)-isoxazol-5-yl]-5-pyridin-4-yl-1H-indole], the Ki at GSK-3β, (AA 1-420) was in the range of 1000 to 12500 nM.
For `c1ccc(-c2cnoc2-c2c[nH]c3ncccc23)cc1` [Compound 35, 3-[4-Phenyl-isoxazol-5-yl]-1H-pyrrolo[2,3-b]pyridine], the Ki at c-Met was 200 to 1000 nM; on GSK-3β, (AA 1-420), 1000 to 12500 nM.
For `Fc1cc(F)c(F)c(-c2cnoc2-c2c[nH]c3ncccc23)c1` [Compound 39, 3-[4-(2,3,5-Trifluoro-phenyl)-isoxazol-5-yl]-1H-pyrrolo [2,3-b]pyridine], in that order: 200 to 1000 nM and 1000 to 12500 nM.
Consider `Fc1ccc(F)c(-c2cnoc2-c2c[nH]c3ncccc23)c1F` [Compound 41, 3-[4-(2,3,6-Trifluoro-phenyl)-isoxazol-5-yl]-1H-pyrrolo [2,3-b]pyridine], for which the Ki at c-Met is 200 to 1000 nM; on GSK-3β, (AA 1-420), 1000 to 12500 nM.
For `Fc1cccc(-c2cnoc2-c2c[nH]c3ncc(Cl)cc23)c1F` [Compound 44, 3-[4-(2,3-Difluoro-phenyl)-isoxazol-5-yl]-5-chloro-1H-pyrrolo[2,3-b]pyridine], in that order: less than 200 nM and 200 to 1000 nM.
Take `Fc1cnc2[nH]cc(-c3oncc3-c3cccc(F)c3F)c2c1` [Compound 45, 3-[4-(2,3-Difluoro-phenyl)-isoxazol-5-yl]-5-fluoro-1H-pyrrolo[2,3-b]pyridine]: the Ki lay within 200 to 1000 nM at c-Met and 1000 to 12500 nM at GSK-3β, (AA 1-420).
For `Cc1cnc2[nH]cc(-c3oncc3-c3cccc(F)c3F)c2c1` [Compound 46, 3-[4-(2,3-Difluoro-phenyl)-isoxazol-5-yl]-5-methyl-1H-pyrrolo[2,3-b]pyridine], in that order: less than 200 nM and 1000 to 12500 nM.
In the same order, the values of `OCc1cnc2[nH]cc(-c3oncc3-c3cccc(F)c3F)c2c1` [Compound 55, {3-[4-(2,3-Difluoro-phenyl)-isoxazol-5-yl]-1H-pyrrolo[2,3-b]pyridin-5-yl}-methanol] are 200 to 1000 nM and 1000 to 12500 nM.
Consider `Fc1cccc(-c2cnoc2-c2c[nH]c3nc(Cl)c(-c4ccncc4)cc23)c1F` [Compound 103, 6-Chloro-3-[4-(2,3-difluoro-phenyl)-isoxazol-5-yl]-5-pyridin-4-yl-1H-pyrrolo[2,3-b]pyridine], for which the Ki lay in the range of 200 to 1000 nM on c-Met and 1000 to 12500 nM at GSK-3β, (AA 1-420).
For `O=C(c1cnc2[nH]cc(-c3oncc3-c3cccc(F)c3F)c2c1)N1CCCC1` [Compound 104, {3-[4-(2,3-Difluoro-phenyl)-isoxazol-5-yl]-1H-pyrrolo[2,3-b]pyridin-5-yl}-pyrrolidin-1-yl-methanone], in that order: 200 to 1000 nM and 1000 to 12500 nM.
`COc1cnc2[nH]cc(-c3nncn3-c3cccc(F)c3F)c2c1` [Compound 108, 3-[4-(2,3-Difluoro-phenyl)-4H-[1,2,4]triazol-3-yl]-5-methoxy-1H-pyrrolo[2,3-b]pyridine]: the Ki on c-Met lay in the range of 200 to 1000 nM; on GSK-3β, (AA 1-420), 1000 to 12500 nM.
In the same order, the values of `Fc1cccc(-n2cnnc2-c2c[nH]c3ncc(-c4ccc(N5CCNCC5)nc4)cc23)c1F` [Compound 111, 3-[4-(2,3-Difluoro-phenyl)-4H-[1,2,4]triazol-3-yl]-5-(6-piperazin-1-yl-pyridin-3-yl)-1H-pyrrolo[2,3-b]pyridine] are 200 to 1000 nM and 1000 to 12500 nM.
As for `Fc1cccc(-c2cnoc2-c2c[nH]c3ncc(CCn4cncn4)cc23)c1F` [Compound 132, 3-[4-(2,3-Difluoro-phenyl)-isoxazol-5-yl]-5-(2-[1,2,4]triazol-1-yl-ethyl)-1H-pyrrolo[2,3-b]pyridine], the inhibitory constant (Ki) was in the range of 200 to 1000 nM at c-Met and 200 to 1000 nM at GSK-3β, (AA 1-420).
With `CN(C)C1CCC(c2cnc3[nH]cc(-c4oncc4-c4cccc(F)c4F)c3c2)CC1` (stereo not drawn) [Compound 141, (4-{3-[4-(2,3-Difluoro-phenyl)-isoxazol-5-yl]-1H-pyrrolo[2,3-b]pyridin-5-yl}-cyclohexyl)-dimethylamine], the inhibition constant Ki was less than 200 nM at c-Met and less than 200 nM on GSK-3β, (AA 1-420).
Consider `NC(=O)c1ccc(-c2cnc3[nH]cc(-c4oncc4-c4cccc(F)c4F)c3c2)cc1` [Compound 153], for which the Ki on c-Met was less than 200 nM; at GSK-3β, (AA 1-420) it was 1000 to 12500 nM.
In the case of `OB(O)c1cnc2[nH]cc(-c3oncc3-c3cccc(F)c3F)c2c1` [Compound 154], the Ki on c-Met was less than 200 nM; at GSK-3β, (AA 1-420), 1000 to 12500 nM.
With `C[N+]1(C)CCN(c2ccc(-c3cnc4[nH]cc(-c5oncc5-c5cccc(F)c5F)c4c3)cc2)CC1` [Compound 155], the Ki is less than 200 nM at c-Met and less than 200 nM at GSK-3β, (AA 1-420).
